According to patent US20070231838A1, “Method for the assay of rock kinase activity in cells” (priority 2006, published 2007):

System: ROCK kinase
Experiment: Immunoblotting of MYPT1 phosphorylation in Panc-1 cells treated with ROCK inhibitors
Format: cell-based, human
Details: for rank order of potency for reduction of MYPT1 phosphorylation: 1 h incubation, immunoblotting (FIG. 5A)
Protocol: FIG. 3: Extraction of cytoskeletal substrates of ROCK1/ROCK2 from Pancd cell extracts: (A) Panc-1 cells were incubated in the presence and absence of 10 μM ROCK inhibitor Y27632 for 1 h followed by lysis in the indicated buffers. Equal fractions of cell lysate were analyzed by immunoblotting for pMYPT1 (T696 or T853), total MYPT1, pMLC (S19) and total MLC. (B) 10 μL aliquots of Panc-1 cell lysate prepared in PROTEOEXTRACT® buffer (or buffer alone for control wells) were diluted in buffer A as indicated prior to addition to MYPT1 antibody-coated ELISA assay plate wells. Quantitation of the extent of MYPT1 (T853) phosphorylation was performed in triplicate assay wells as described in the methods section. Results plotted are mean signal intensities, error bars represent Standard Deviations.
FIG. 4: Time course of reduction of MYPT1 phosphorylation bv ROCK inhibitors in Pancl cells: Panc-1 cells were incubated in the presence and absence of 10 μM ROCK inhibitor Y27632 for the indicated time points followed by lysis in SDS-PAGE sample buffer. Equal fractions of cell lysate were then analyzed by immunoblotting for pMYPT1 (T696 or T853) and total MYPT1 protein.
FIG. 5: Effect of ROCK inhibitors on MYPT1 (T853) phosphorylation in Panc-1 cells: (A) Panc-1 cells were incubated in the presence and absence of the indicated concentrations of ROCK inhibitors H1152, Y27632 or HA1077 for 1 h, followed by lysis in SDS-PAGE sample buffer. Equal fractions of cell lysate were then analyzed by immunoblotting for pMYPT1 (T696 or T853) and total MYPT1 protein. (B) Panc1 cells were grown in 96-well culture plates, and incubated for 1 h with the indicated concentrations of compound ROCK inhibitors H1152, Y27632 or HA1077. Lysates were then prepared in PROTEOEXTRACT® buffer, and analyzed in the pMYPT1 (T853) ELISA assay as described in the Methods section.
Human cancer cell lines were purchased from the American Type Culture Collection (ATCC). Panc-1 cells were grown in Dulbecco's modified Eagle's medium with 2 mM L-glutamine adjusted to contain 3.7 g/L sodium bicarbonate and 4.5 g/L glucose, 10% fetal bovine serum. All other cell lines were grown in media as prescribed by the ATCC, containing 10% FCS.
Lysates were prepared from cultured cells, following a brief rinse in PBS, using several different buffers. Buffer A (50 mM Tris-HCl, pH 7.4, 150 mM NaCl, 10% glycerol, 1% Triton X-100, 0.5 mM EDTA, 1 mM […], […], lmg/ml aprotinin) and buffer B (RIPA buffer: Sigma catalog #R0278, containing protease and phosphatase inhibitor cocktails Sigma catalog #P2850, P5726 P8340) were added to the cells in culture dishes, the cells were scraped from the dish and the lysates transferred to eppendorf tubes and incubated at 4° C. for 20 min. Lysates were then clarified by centrifugation at 10,000 g, and the resulting supernatants were stored at −80° C. prior to the addition of SDS-PAGE sample buffer and analysis by immunoblotting. Alternatively, lysates were prepared by the direct addition of SDS-PAGE sample buffer to the cultures, and samples were prepared for analysis by sonication for 5 min followed by heating to 100° C. for 5 min. Alternatively, lysates were prepared by the addition of PROTEOEXTRACT® solution (complete mammalian proteome extraction kit, Calbiochem, #539779) including 16.5 IU of BENZONASE® (Novagen, Inc., Madison, Wis.) followed by shaking for 30 minutes at room temperature. Samples prepared by this method were either diluted directly into SDS-PAGE sample buffer for analysis by immunoblotting, or were diluted 10-fold in buffer A for analysis in antibody capture ELISA assays. Tumor lysates were prepared using the PROTEOEXTRACT® complete mammalian proteome extraction kit (Calbiochem, #539779). Approximately 300 mg samples of tumor sample were homogenized and dispersed in […] resuspension buffer, then 2.4 mL extraction reagent and 150 μl reducing agent were added and the samples were mixed thoroughly. […]

[1] = 10 μM for 1 h prior to lysis, immunoblotting (FIG. 3)
[2] = 10 μM, time course up to 24 h (FIG. 4)

Structure (SMILES) | rank order of potency for reduction of MYPT1 phosphorylation | level of MYPT1 phosphorylation [1] | total MYPT1 protein content of the extracts [1] | incubation time necessary to maximally reduce steady-state phosphorylation of MYPT1 T696 [2] | time to maximal reduction of steady-state phosphorylation of MYPT1 (T853) [2] [min]
Cc1cncc2cccc(S(=O)(=O)N3CCCNC[C@@H]3C)c12 [H1152] | H1152>Y27632>HA1077 |  |  |  | 
C[C@@H](N)[C@H]1CC[C@H](C(=O)Nc2ccncc2)CC1 [Y27632] | H1152>Y27632>HA1077 | significantly reduced | without affecting significantly | at least 8 hours | 30 to 60
O=S(=O)(c1cccc2cnccc12)N1CCCNCC1 [HA1077] | H1152>Y27632>HA1077 |  |  |  | 
